Assay results as given in patent US8574837B2, “System for screening agonists/antagonists of cellular signaling pathways” (President and Fellows of Harvard College, priority 2008, dated 2013).

Experiments:
Smo [1] = target: T1, Smo (Homo sapiens, UniProt Q99835); assay: Smo translocation assay (A1::Smo::GFP / Smo colocalization with Arl13b at the primary cilium); assay type: cell-based; conditions: for Smo translocation to the primary cilium, agent applied alone: NIH/3T3 cells, ShhN 25 nM, SAG 200 nM, purmorphamine, 20-OHC, cyclopamine, GANT61 10 μM, SANT-1, SANT-2 1 μM, 24 hr; for ShhN-dependent translocation of Smo to the primary cilium, antagonist plus ShhN: ShhN 25 nM plus SANT-1 or SANT-2 1 μM or GANT61 10 μM, FIG. 6
T1 construct: expressed in transfected cells; host or cells: NIH/3T3 (mouse fibroblasts), retroviral infection with pBabe-A1::Smo::GFP, clonal lines
Procedure: All 3T3 cell lines were plated at a density of 1×10^4 cells per well in fibronectin coated Lab-Tek™ Chamber Slides (Nunc, 178599). The cells were grown to confluence, then switched to […] containing 0.5% BCS with indicated treatments for 24 hr or as stated elsewhere herein. Immunostaining was performed after fixation in 4% Paraformaldehyde (PFA) according to standard protocols. AcpS labeling reactions were performed as described previously (Zhou et al., 2007). Fluorescent images were collected after fixing samples using a Zeiss LSM510 META on an inverted microscope, with a 63× (1.4 NA) oil-immersion objective lens utilizing four laser lines (405 nm, 488 nm, 543 nm, 633 nm).
Mouse recombinant ShhN purified protein was purchased from R&D Systems (#464-SH-025). SAG, SANT-2, and GANT61 were purchased from Axxora (#ALX-270-426, #ALX-270-436, #ALX-270-482; Axxora, LLC, San Diego, Calif.). SANT-1 was obtained from Tocris Bioscience (#1974). DMSO was from Sigma Aldrich (D2650). Purmorphamine was from Calbiochem (#540220). […] AcpS, Texas Red-CoA, and Alexa633-CoA were prepared as described previously (Zhou et al., 130 J. Am. Chem. Soc. 9925-30 (2008)).

Hh signaling = assay: Gli-luciferase assay (Ptch1-promoter driven luciferase reporter); assay type: cell-based, mouse; conditions: NIH/3T3 cells, RNAi knock down of suFU; FIG. 3
Procedure: Cells were plated at a density of 5×10^4 per well in 24-well plates 18 hr prior to transfection. DNA transfection was performed using Lipofectamine™ 2000 transfection reagent (Invitrogen, #11668); the DNA introduced in each well included 100 ng CMV driven Renilla luciferase construct, 300 ng Ptch1 promoter-driven firefly luciferase construct, and 400 ng of each shRNA construct or a PBS plasmid as a control. Cells were grown for two days; then the medium was changed to DMEM containing 0.5% BCS and proteins/compounds indicated in the text. Cells were cultured for an additional 48 hr, tryspinized, lysed and assayed using a Promega Dual Luciferase Reporter Essay System Kit (E1910). Renilla luciferase signal was used to normalize the firefly luciferase signal. The RNAi efficiency was measured as previous described (Varjosalo et al., 2006). In all luciferase assays, every condition was repeated in quadruplicate wells and experiments were repeated at least three times.
Mouse recombinant ShhN purified protein was purchased from R&D Systems (#464-SH-025). SAG, SANT-2, and GANT61 were purchased from Axxora (#ALX-270-426, #ALX-270-436, #ALX-270-482; Axxora, LLC, San Diego, Calif.). SANT-1 was obtained from Tocris Bioscience (#1974). DMSO was from Sigma Aldrich (D2650). Purmorphamine was from Calbiochem (#540220). […]

Gli1 = target: T2, Gli1 (Homo sapiens, UniProt P08151); conditions: cited from earlier work
T2 sequence (P08151 1-1106): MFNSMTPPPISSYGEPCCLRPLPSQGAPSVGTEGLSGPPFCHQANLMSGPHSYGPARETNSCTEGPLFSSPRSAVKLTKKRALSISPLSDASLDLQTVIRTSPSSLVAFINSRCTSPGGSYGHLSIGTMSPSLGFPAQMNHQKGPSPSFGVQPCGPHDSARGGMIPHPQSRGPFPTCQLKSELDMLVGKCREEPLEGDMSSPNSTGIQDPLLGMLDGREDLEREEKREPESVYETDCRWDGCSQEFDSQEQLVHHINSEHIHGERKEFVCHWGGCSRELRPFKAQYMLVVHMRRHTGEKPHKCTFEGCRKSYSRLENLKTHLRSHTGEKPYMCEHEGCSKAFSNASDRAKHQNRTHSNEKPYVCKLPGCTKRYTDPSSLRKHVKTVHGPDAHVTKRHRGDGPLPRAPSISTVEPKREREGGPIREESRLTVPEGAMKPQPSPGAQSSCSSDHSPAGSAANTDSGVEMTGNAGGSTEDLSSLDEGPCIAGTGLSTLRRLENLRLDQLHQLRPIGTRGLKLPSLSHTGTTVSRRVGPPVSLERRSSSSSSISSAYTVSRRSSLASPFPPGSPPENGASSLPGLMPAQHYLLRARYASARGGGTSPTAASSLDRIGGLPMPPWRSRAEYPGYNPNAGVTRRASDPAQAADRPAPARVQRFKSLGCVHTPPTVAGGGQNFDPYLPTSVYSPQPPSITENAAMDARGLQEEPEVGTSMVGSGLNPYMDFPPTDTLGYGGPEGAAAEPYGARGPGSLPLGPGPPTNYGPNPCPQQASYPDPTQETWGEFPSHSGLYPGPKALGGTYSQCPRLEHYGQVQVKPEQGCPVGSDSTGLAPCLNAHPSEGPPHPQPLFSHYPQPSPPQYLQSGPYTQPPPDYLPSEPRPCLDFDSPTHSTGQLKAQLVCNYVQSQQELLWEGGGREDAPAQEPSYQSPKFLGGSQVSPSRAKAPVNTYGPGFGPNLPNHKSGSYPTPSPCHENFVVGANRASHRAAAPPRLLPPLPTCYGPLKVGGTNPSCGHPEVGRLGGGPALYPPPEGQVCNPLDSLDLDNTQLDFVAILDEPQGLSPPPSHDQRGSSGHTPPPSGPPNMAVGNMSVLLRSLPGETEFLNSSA

Smo [2] = target: Smo (Mus musculus, UniProt P56726); conditions: cited from earlier work
SmoA1 = conditions: cited from earlier work
[3] = test system: UV-irradiated Ptch1^+/− mice; conditions: prolonged systemic treatment; cited from earlier work

T1 sequence (Q99835 28-787): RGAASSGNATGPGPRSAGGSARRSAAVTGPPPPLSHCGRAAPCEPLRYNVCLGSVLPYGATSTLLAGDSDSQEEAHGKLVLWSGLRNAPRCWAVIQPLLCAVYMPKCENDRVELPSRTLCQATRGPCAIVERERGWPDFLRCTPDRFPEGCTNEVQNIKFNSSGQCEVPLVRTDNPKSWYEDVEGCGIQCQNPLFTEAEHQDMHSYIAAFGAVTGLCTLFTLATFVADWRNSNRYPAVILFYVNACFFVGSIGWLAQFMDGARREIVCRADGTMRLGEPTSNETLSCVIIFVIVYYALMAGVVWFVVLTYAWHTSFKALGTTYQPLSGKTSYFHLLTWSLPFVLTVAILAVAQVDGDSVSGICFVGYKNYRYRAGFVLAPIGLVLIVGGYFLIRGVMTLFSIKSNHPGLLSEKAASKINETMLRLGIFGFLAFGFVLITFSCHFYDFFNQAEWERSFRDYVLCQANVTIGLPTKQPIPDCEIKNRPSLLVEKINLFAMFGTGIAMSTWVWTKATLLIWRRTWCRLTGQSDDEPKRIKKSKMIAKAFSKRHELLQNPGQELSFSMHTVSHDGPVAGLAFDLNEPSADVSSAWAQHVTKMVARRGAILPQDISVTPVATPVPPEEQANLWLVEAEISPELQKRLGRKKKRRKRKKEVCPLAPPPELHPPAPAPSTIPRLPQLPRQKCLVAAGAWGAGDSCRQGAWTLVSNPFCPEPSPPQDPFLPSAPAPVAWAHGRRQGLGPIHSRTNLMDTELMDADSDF
Smo (Mus musculus, UniProt P56726), sequence (P56726 33-793): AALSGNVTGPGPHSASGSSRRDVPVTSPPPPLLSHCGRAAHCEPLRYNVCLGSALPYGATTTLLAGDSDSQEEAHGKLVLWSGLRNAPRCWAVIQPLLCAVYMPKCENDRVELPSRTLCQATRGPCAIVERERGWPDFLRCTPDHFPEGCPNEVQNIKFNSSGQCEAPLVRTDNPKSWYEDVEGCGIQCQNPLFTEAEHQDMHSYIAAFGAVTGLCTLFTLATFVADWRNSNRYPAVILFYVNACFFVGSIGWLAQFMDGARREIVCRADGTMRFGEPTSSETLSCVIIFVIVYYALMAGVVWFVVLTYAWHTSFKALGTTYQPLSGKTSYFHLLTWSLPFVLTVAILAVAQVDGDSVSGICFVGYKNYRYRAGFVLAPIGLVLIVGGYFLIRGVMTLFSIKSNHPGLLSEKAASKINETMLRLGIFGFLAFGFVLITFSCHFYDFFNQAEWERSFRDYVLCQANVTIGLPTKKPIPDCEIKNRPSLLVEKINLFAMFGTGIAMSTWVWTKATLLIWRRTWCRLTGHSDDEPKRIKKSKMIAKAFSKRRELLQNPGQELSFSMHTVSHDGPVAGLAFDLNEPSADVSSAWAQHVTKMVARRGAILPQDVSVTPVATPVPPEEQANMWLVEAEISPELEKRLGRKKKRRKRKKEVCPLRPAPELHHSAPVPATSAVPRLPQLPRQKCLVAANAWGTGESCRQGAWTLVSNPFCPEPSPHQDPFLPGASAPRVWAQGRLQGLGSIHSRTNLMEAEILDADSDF

SMILES	Smo translocation to the primary cilium, agent applied alone (Smo [1])	ShhN-dependent translocation of Smo to the primary cilium, antagonist plus ShhN (Smo [1])	other results
CC(C)CCC[C@](C)(O)[C@H]1CC[C@H]2[C@@H]3CC=C4C[C@@H](O)CC[C@]4(C)[C@H]3CC[C@@]21C [20-OHC, 20α-hydroxycholesterol]	Smo translocated to the primary cilium	–	–
CN(C)c1ccccc1CN1CCCN(Cc2ccccc2N(C)C)C1c1ccncc1 [GANT61]	do not induce obvious localization change of Smo	abrogate the ShhN-dependent translocation of Smo to the primary cilium	Gli activity when the endogenous Gli antagonist suFU was knocked down (Hh signaling): inhibited Gli activity; Gli1 binding to DNA (Gli1): inhibits Gli1 binding to DNA
CNC1CCC(N(Cc2cccc(-c3ccncc3)c2)C(=O)c2sc3ccccc3c2Cl)CC1 (centres unmarked) [SAG]	Smo translocated to the primary cilium	–	–
Cc1nn(-c2ccccc2)c(C)c1/C=N/N1CCN(Cc2ccccc2)CC1 [SANT-1]	do not induce obvious localization change of Smo	abrogate the ShhN-dependent translocation of Smo to the primary cilium	Competition for cyclopamine binding of Smo (Smo [2]): compete for cyclopamine binding of Smo; Inhibition of SmoA1 activity, dose relative to wild-type Smo (SmoA1): at a comparable dose to that required to inhibit wild-type Smo
CCOc1cc(C(=O)Nc2ccc(Cl)c(-c3nc4ccccc4[nH]3)c2)cc(OCC)c1OCC [SANT-2]	do not induce obvious localization change of Smo	abrogate the ShhN-dependent translocation of Smo to the primary cilium	Competition for cyclopamine binding of Smo (Smo [2]): compete for cyclopamine binding of Smo; Inhibition of SmoA1 activity, dose relative to wild-type Smo (SmoA1): at a comparable dose to that required to inhibit wild-type Smo
CC1=C2C[C@H]3[C@@H](CC=C4C[C@@H](O)CC[C@@]43C)[C@@H]2CC[C@]12O[C@@H]1C[C@H](C)CN[C@H]1[C@H]2C [cyclopamine]	drove Smo to the primary cilium	–	Tumor formation [3]: significantly diminish tumor formation
c1ccc2c(Oc3nc(Nc4ccc(N5CCOCC5)cc4)c4ncn(C5CCCCC5)c4n3)cccc2c1 [purmorphamine]	Smo translocated to the primary cilium	–	–
